{
  "source": "patent EP0003788B1",
  "about": "“Glycofuranosyl-nitrosourea derivatives, process for their manufacture and their pharmaceutical preparations” (CIBA-GEIGY AG, priority 1978, dated 1979)",
  "key": {"Ehrlich-Ascites-Karzinom": {"tested_on": "Ehrlich-Ascites-Karzinom", "experiment": "Inhibition of tumour growth, Ehrlich ascites carcinoma in mice", "assay_type": "in vivo, Mäusen"}, "[1]": {"experiment": "Macroscopic organ changes in normal animals after three weeks of peroral treatment", "assay_type": "in vivo"}, "[2]": {"experiment": "Tolerability and side effects on treatment", "assay_type": "in vivo"}, "Walker CaSa 256": {"tested_on": "Walker CaSa 256", "experiment": "Inhibition of tumour growth, Walker CaSa 256 in rats", "assay_type": "in vivo, Ratten"}, "Leukämie L 1210": {"tested_on": "Leukämie L 1210", "experiment": "Prolongation of life, leukaemia L 1210 in mice", "assay_type": "in vivo, Mäusen", "procedure": "So bewirken sie in Dosen von 25-500 mg/kg i.p. eine starke Hemmung des Tumorwachstums bei Mäusen mit z.B. Ehrlich-Ascites-Karzinom und bei Ratten mit z.B. Walker CaSa 256. Analoge Dosen bewirken eine Lebensverlängerung gegenüber Kontrollen bei Mäusen mit z.B. Leukämie L 1210."}},
  "data": [
    {"smiles": "CCO[C@@H]1O[C@H]([C@@H](CNC(=O)N(C)N=O)OC)[C@H](O)[C@H]1O", "note": "[Äthyl-6-desoxy-5-0-methyl-6-(3-methyl-3-nitroso-ureido)-ß-D-glucofuranosid]", "values": [
      {"measurement": "Hemmung des Wachstums der genannten Tumoren", "setting": "Ehrlich-Ascites-Karzinom; 50-250 mg/kg i.p., mice with Ehrlich ascites carcinoma", "value": "80-100%"},
      {"measurement": "Hemmung des Wachstums der genannten Tumoren", "setting": "Ehrlich-Ascites-Karzinom; p.o. application, Ehrlich ascites carcinoma", "value": "Ähnliche Resultate"},
      {"measurement": "Organveränderungen", "setting": "[1]", "value": "keine Organveränderungen"},
      {"measurement": "Nebenwirkungen", "setting": "[2]; also on prolonged treatment", "value": "nicht festzustellen"},
      {"measurement": "Verträglichkeit", "setting": "[2]; in vivo", "value": "gut"},
      {"measurement": "Hemmung des Wachstums der genannten Tumoren", "setting": "Walker CaSa 256; 50-250 mg/kg i.p., rats with Walker CaSa 256", "value": "80-100%"},
      {"measurement": "Hemmung des Wachstums der genannten Tumoren", "setting": "Walker CaSa 256; p.o. application, Walker CaSa 256", "value": "Ähnliche Resultate"},
      {"measurement": "Lebensverlängerung", "setting": "Leukämie L 1210; 50-250 mg/kg i.p.", "value": "> 90", "unit": "%"},
      {"measurement": "Lebensverlängerung", "setting": "Leukämie L 1210; p.o. application", "value": "Ähnliche Resultate"}
    ]}
  ]
}
